The source of these data is paper PMC9583322, “Vicinal Diaryl-Substituted Isoxazole and Pyrazole Derivatives with In Vitro Growth Inhibitory and In Vivo Antitumor Activity” (ACS Omega, 2022).

The subject of one data set is Huh7. The data set is described as follows: SRB cytotoxicity assay. The format is cell-based, human. Particulars: 72 h treatment. The protocol:
(§1) HepG2, FOCUS, Hep3B, Mahlavu, Huh7, Hep40, and PLC-PRF-5 hepatocellular carcinoma cells; MCF-7, MDA-MB-231, MDA-MB-468, SKBR3, and ZR-75 breast cancer cells; and normal-like epithelial MCF-10A breast cells were cultured in low-glucose Dulbecco’s modified Eagle’s medium (DMEM) (Biological Industries-BI) supplemented with 10% fetal bovine serum (FBS) (Gibco/Thermo Fisher Scientific), 2 mM L-Glutamine (Gibco/Thermo Fisher Scientific), 100 Units/mL Penicillin/Streptomycin, and 0.1 mM non-essential amino acid (Gibco/Thermo Fisher Scientific). SNU475 hepatocellular carcinoma cells were maintained in RPMI (Biological Industries-BI) supplemented with 10% fetal bovine serum (FBS) (Gibco/Thermo Fisher Scientific), L-Glutamine (Gibco/Thermo Fisher Scientific), and 100 Units/mL Penicillin/Streptomycin, while ZR-75 breast cancer cells were cultured RPMI (Biological Industries-BI) supplemented with 10% fetal bovine serum (FBS) (Gibco/Thermo Fisher Scientific), 1× sodium pyruvate, and %4.5 glucose. Normal-like MCF-10A breast cells were sustained in DMEM/HAM’S F12 (Hyclone) supplemented with 10% fetal bovine serum (FBS) (Gibco/Thermo Fisher Scientific), EGF (20 ng/mL), Hydrocortisone ([…]), cholera toxin (100 ng/mL), insulin (10 μg/mL), and 100 Units/mL Penicillin/Streptomycin. The cells were cultivated at 37 °C in a humidified incubator under 5% CO2.
(§2) Mahlavu, FOCUS, SNU475 (1000 cell/well in 150 μL/well); Huh7, MCF7 (2500 cell/well in 150 μL/well); HepG2, Hep3B, SKBR3 (3000 cell/well in 150 μL/well); PLC-PRF-5, Hep40 (5000 cell/well in 150 μL/well); MDA-MB-231, MDA-MB-468, MCF10A (6000 cell/well in 150 μL/well); and ZR-75 (7500 cell/well in 150 μL/well) were cultured in 96-well plates and were inoculated in an incubator for 24 hours. The compounds were dissolved in dimethyl sulfoxide (DMSO) (Sigma, St Louis, MO) as a 20 mM stock solution. The treatment of cells with the compounds was done in a concentration range starting from 40 to 2.5 μM. The compounds which were below 2.5 μM were tested in a concentration range from 2.5 to 0.15 μM. End of the 72h compound treatment, the cells were fixed using 10% (v/v) trichloroacetic acid (MERCK) for an hour and washed with ddH2O, and left for air-drying. The fixed plates were stained with 50 μL of sulforhodamine B (SRB) solution (Sigma) at RT for 10 min. To remove unbound SRB dye, acetic acid was used to wash cells three times and left for drying. The protein-bound SRB was solubilized with 10 mM Tris-base (Sigma) and their absorbance was measured with a 96-well plate reader at 515 nm wavelength (ELx800, Biotek). The IC50 values of compounds were calculated in comparison with control group DMSO. Data with R^2 values larger than 0.9 are considered significant.
Background: The SRB assay estimates cell density from bound dye.

The subject of the next data set is MCF7. In words: SRB cytotoxicity assay. The format is cell-based, human. Conditions: 72 h treatment. The procedure:
as §1, §2

For orientation: IC50 means the concentration at which inhibition is half-maximal. The low end stands for greater potency in that assay, the high end for weaker potency in that assay. What is called melting point is the temperature of the solid-liquid transition. `Cc1onc(-c2ccc(OCc3ccc(C#N)cc3)cc2)c1-c1ccc(Cl)cc1` [compound 27, 4-((4-(4-(4-Chlorophenyl)-5-methylisoxazol-3-yl)phenoxy)methyl)benzonitrile] yielded a melting point of 138.5 to 139.5 °C. The same molecule showed an IC50 in the data set with Huh7 (Homo sapiens, Huh-7, 72 h) of 11.7 µM. Moreover, in the data set on MCF7 (Homo sapiens, MCF7, 72 h), the IC50 was > 20 µM.
`Cc1onc(-c2ccc(OCc3ccncc3)cc2)c1-c1ccc(Cl)cc1` [compound 33, 4-(4-Chlorophenyl)-5-methyl-3-(4-(pyridin-4-ylmethoxy)phenyl)isoxazole] returned a melting point of 124.2 to 125.8 °C. The IC50 with Huh7 (Homo sapiens, Huh-7, 72 h) came to 11.4 µM. The IC50 in the data set with MCF7 (Homo sapiens, MCF7, 72 h) was 14.5 µM.
`COC(=O)c1ccc(COc2ccc(-c3noc(C)c3-c3ccc(Cl)cc3)cc2)cc1` [compound 28, Methyl-4-((4-(4-(4-chlorophenyl)-5-methylisoxazol-3-yl)phenoxy)methyl)benzoate]: the melting point was in the range of 110.7 to 111.9 °C. This molecule had an IC50 in the data set with Huh7 (Homo sapiens, Huh-7, 72 h) of 12.7 µM. Moreover, in the data set with MCF7 (Homo sapiens, MCF7, 72 h), the IC50 was > 20 µM.
`Cc1onc(-c2ccc(OCc3ccccc3OC(F)F)cc2)c1-c1ccc(Cl)cc1` [compound 14, 4-(4-Chlorophenyl)-3-(4-((2-(difluoromethoxy)benzyl)oxy)phenyl)-5-methylisoxazole] came in with a melting point of 95.5 to 96.9 °C. Further, half-maximal inhibition in the data set with Huh7 (Homo sapiens, Huh-7, 72 h) (IC50) required 13.8 µM. It took 8.5 µM to reach half-maximal inhibition in the data set with MCF7 (Homo sapiens, MCF7, 72 h) (IC50).
`Cc1ccccc1CNc1ccc(-c2noc(C)c2-c2ccc(Cl)cc2)cc1` [compound 59, 4-(4-(4-Chlorophenyl)-5-methylisoxazol-3-yl)-N-(2-methylbenzyl)aniline] showed a melting point of 134.9 to 137 °C. Inhibition with Huh7 (Homo sapiens, Huh-7, 72 h) was half-maximal at 4 µM (IC50). Further, the IC50 in the data set with MCF7 was > 20 µM. Further, the IC50 in the data set with MCF7 (Homo sapiens, MCF7, 72 h) was ≥ 20 µM.
`COc1ccccc1COc1ccc(-c2noc(C)c2-c2ccc(Cl)cc2)cc1` [compound 12, 4-(4-Chlorophenyl)-3-(4-((2-methoxybenzyl)oxy)phenyl)-5-methylisoxazole] gave a melting point of 156.8 to 157.7 °C. Moreover, in the data set with Huh7 (Homo sapiens, Huh-7, 72 h), the IC50 was > 20 µM. Besides, in the data set with MCF7 (Homo sapiens, MCF7, 72 h), the IC50 was > 20 µM.
Take `Cc1ccccc1COc1ccc(-c2noc(C)c2-c2ccc(N)cc2)cc1` [compound 51, 5-Methyl-4-(4-aminophenyl)-3-(4-((2-methylbenzyl)oxy)phenyl)isoxazole]: the melting point lay within 119.4 to 121.1 °C. Besides, half-maximal inhibition in the data set with Huh7 (Homo sapiens, Huh-7, 72 h) (IC50) was put at 16.9 µM. For the same molecule, in the data set on MCF7 (Homo sapiens, MCF7, 72 h), half-maximal inhibition (IC50) required 19.7 µM.
For `Cc1ccc(-c2c(-c3ccc(OCc4ccccc4C)cc3)noc2C)cc1` [compound 47, 5-Methyl-4-(4-methylphenyl)-3-(4-((2-methylbenzyl)oxy)phenyl)isoxazole], the melting point is 130.8 to 131.8 °C. Besides, the IC50 in the data set with Huh7 (Homo sapiens, Huh-7, 72 h) is 1.8 µM. Also, in the data set on MCF7 (Homo sapiens, MCF7, 72 h), the IC50 came out at 4.7 µM.
`Cc1ccc(COc2ccc(-c3noc(C)c3-c3ccc(Cl)cc3)cc2)c(C)c1` [compound 31, 4-(4-Chlorophenyl)-3-(4-((2,4-dimethylbenzyl)oxy)phenyl)-5-methylisoxazole] gave a melting point of 119.7 to 122.1 °C. In the data set with Huh7 (Homo sapiens, Huh-7, 72 h), this molecule displayed an IC50 of 10.8 µM. Besides, the IC50 with MCF7 (Homo sapiens, MCF7, 72 h) was > 20 µM.
Regarding `Cc1onc(-c2ccc(OCc3cccc(F)c3)cc2)c1-c1ccc(Cl)cc1` [compound 21, 4-(4-Chlorophenyl)-3-(4-((3-fluorobenzyl)oxy)phenyl)-5-methylisoxazole], the melting point lay within 98.1 to 99.8 °C. Also, the IC50 in the data set with Huh7 (Homo sapiens, Huh-7, 72 h) was > 20 µM. Moreover, in the data set with MCF7 (Homo sapiens, MCF7, 72 h), the IC50 is > 20 µM.
Molecule `COc1cccc(COc2ccc(-c3noc(C)c3-c3ccc(Cl)cc3)cc2)c1` [compound 20, 4-(4-Chlorophenyl)-3-(4-((3-methoxybenzyl)oxy)phenyl)-5-methylisoxazole] gave a melting point of 105.1 to 106.8 °C. The IC50 in the data set with Huh7 (Homo sapiens, Huh-7, 72 h) is 3.6 µM. The molecule also displayed an IC50 in the data set on MCF7 (Homo sapiens, MCF7, 72 h) of 12 µM.
In turn, `Cc1ccccc1COc1ccc(-c2noc(C)c2-c2ccc(Cl)cc2)c(F)c1` [compound 56, 4-(4-Chlorophenyl)-3-(2-fluoro-4-((2-methylbenzyl)oxy)phenyl)-5-methylisoxazole] had a melting point of 96.1 to 98.3 °C. In the data set on Huh7 (Homo sapiens, Huh-7, 72 h), the IC50 turned out to be 2.25 µM. Also, in the data set with MCF7 (Homo sapiens, MCF7, 72 h), the concentration for half-maximal inhibition (IC50) amounted to 9.53 µM.
The molecule `Cc1cccc(COc2ccc(-c3noc(C)c3-c3ccc(Cl)cc3)cc2)n1` [compound 37, 4-(4-Chlorophenyl)-5-methyl-3-(4-((6-methylpyridin-2-yl)methoxy)phenyl)isoxazole] gave a melting point of 126.1 to 127.5 °C. This molecule had a half-maximal inhibitory concentration (IC50) with Huh7 (Homo sapiens, Huh-7, 72 h) of 6.9 µM. This molecule returned a half-maximal inhibitory concentration (IC50) in the data set on MCF7 (Homo sapiens, MCF7, 72 h) of 12.9 µM.
With `Cc1ccccc1COc1ccc(-c2noc(C)c2-c2cccc(C(F)(F)F)c2)cc1` [compound 49, 5-Methyl-4-(3-trifluoromethylphenyl)-3-(4-((2-methylbenzyl)oxy)phenyl)isoxazole], the melting point is 120.7 to 122.4 °C. This molecule also displayed an IC50 with Huh7 (Homo sapiens, Huh-7, 72 h) of 19 µM. Also, in the data set with MCF7 (Homo sapiens, MCF7, 72 h), the IC50 was > 20 µM.
For the molecule `Cc1onc(-c2ccc(OCc3ccccc3C#N)cc2)c1-c1ccc(Cl)cc1` [compound 17, 2-((4-(4-(4-Chlorophenyl)-5-methylisoxazol-3-yl)phenoxy)methyl)benzonitrile], the melting point was 111.2 to 112.5 °C. Also, the IC50 in the data set with Huh7 (Homo sapiens, Huh-7, 72 h) is > 20 µM. Moreover, in the data set on MCF7 (Homo sapiens, MCF7, 72 h), the IC50 was > 20 µM.
`Cc1onc(-c2ccc(OCc3ccccc3F)cc2)c1-c1ccc(Cl)cc1` [compound 15, 4-(4-Chlorophenyl)-3-(4-((2-fluorobenzyl)oxy)phenyl)-5-methylisoxazole] had a melting point of 119.5 to 120.9 °C. In the data set on Huh7 (Homo sapiens, Huh-7, 72 h), the IC50 was > 20 µM. For the same molecule, in the data set with MCF7 (Homo sapiens, MCF7, 72 h), the IC50 was > 20 µM.
On to `Cc1noc(C)c1COc1ccc(-c2noc(C)c2-c2ccc(Cl)cc2)cc1` [compound 39, 4-(4-Chlorophenyl)-3-(4-((3,5-dimethylisoxazol-4-yl)methoxy)phenyl)-5-methylisoxazole], for which the melting point fell in the range of 138.9 to 141.3 °C. In the data set on Huh7 (Homo sapiens, Huh-7, 72 h), half-maximal inhibition (IC50) required 3.7 µM. For the same molecule, in the data set on MCF7 (Homo sapiens, MCF7, 72 h), the concentration for half-maximal inhibition (IC50) was > 20 µM.
`COC(=O)c1cccc(COc2ccc(-c3noc(C)c3-c3ccc(Cl)cc3)cc2)c1` [compound 23, Methyl-3-((4-(4-(4-chlorophenyl)-5-methylisoxazol-3-yl)phenoxy)methyl)benzoate] registered a melting point of 121.5 to 122.8 °C. Moreover, the IC50 in the data set on Huh7 (Homo sapiens, Huh-7, 72 h) was > 20 µM. Further, in the data set on MCF7 (Homo sapiens, MCF7, 72 h), the IC50 stood at 13 µM.
In turn, `Cc1onc(-c2ccc(OCc3ccc(C(=O)O)cc3)cc2)c1-c1ccc(Cl)cc1` [compound 29, 4-((4-(4-(4-Chlorophenyl)-5-methylisoxazol-3-yl)phenoxy)methyl)benzoic acid] showed a melting point of 210.8 to 212.4 °C. Further, in the data set with Huh7 (Homo sapiens, Huh-7, 72 h), the IC50 came to 8.6 µM. This molecule returned an IC50 in the data set on MCF7 (Homo sapiens, MCF7, 72 h) of 15 µM.
`Cc1ncccc1COc1ccc(-c2noc(C)c2-c2ccc(Cl)cc2)cc1` [compound 35, 4-(4-Chlorophenyl)-5-methyl-3-(4-((2-methylpyridin-3-yl)methoxy)phenyl)isoxazole] returned a melting point of 107.2 to 108.8 °C. In the data set on Huh7 (Homo sapiens, Huh-7, 72 h), the IC50 was found to be 3.9 µM. This molecule showed an IC50 in the data set on MCF7 (Homo sapiens, MCF7, 72 h) of 6.1 µM.
Consider `Cc1ccccc1COc1ccc(-c2noc(C)c2-c2ccccc2Cl)cc1` [compound 44, 5-Methyl-4-(2-chlorophenyl)-3-(4-((2-methylbenzyl)oxy)phenyl)isoxazole], for which the melting point is 103.8 to 104.4 °C. Also, in the data set with Huh7 (Homo sapiens, Huh-7, 72 h), the IC50 was > 20 µM. The molecule further showed an IC50 in the data set on MCF7 (Homo sapiens, MCF7, 72 h) of 9.9 µM.
As to `Cc1cccnc1COc1ccc(-c2noc(C)c2-c2ccc(Cl)cc2)cc1` [compound 36, 4-(4-Chlorophenyl)-5-methyl-3-(4-((3-methylpyridin-2-yl)methoxy)phenyl)isoxazole], the melting point lay in the range of 138.7 to 141.2 °C. In the data set on Huh7 (Homo sapiens, Huh-7, 72 h), this molecule registered an IC50 of 9.4 µM. In addition, the IC50 in the data set with MCF7 was > 20 µM. Further, the IC50 with MCF7 (Homo sapiens, MCF7, 72 h) is ≥ 20 µM.
As for “5-Methyl-4-(2,4-difluoromethylphenyl)-3-(4-((2-methylbenzyl)oxy)phenyl)isoxazole [compound 52]”, the IC50 with Huh7 is 15 µM; in the data set on MCF7, > 20 µM.
With “5-Methyl-4-(3-fluoromethylphenyl)-3-(4-((2-methylbenzyl)oxy)phenyl)isoxazole [compound 50]”, the values for the IC50 in the data set with Huh7 and in the data set with MCF7 were 15 µM and > 20 µM, respectively.
